The values that follow come from patent publication US20160130278A1 (TAISHO PHARMACEUTICAL CO., LTD, priority 2013, published 2016).

The target in the test is T1, human type 1 glycine transporter (GlyT1) (Homo sapiens, UniProt P48067).
T1 construct: T98G cells (glioma cells) expressing human type 1 glycine transporter (GlyT1) were used
T1 sequence (P48067 1-706): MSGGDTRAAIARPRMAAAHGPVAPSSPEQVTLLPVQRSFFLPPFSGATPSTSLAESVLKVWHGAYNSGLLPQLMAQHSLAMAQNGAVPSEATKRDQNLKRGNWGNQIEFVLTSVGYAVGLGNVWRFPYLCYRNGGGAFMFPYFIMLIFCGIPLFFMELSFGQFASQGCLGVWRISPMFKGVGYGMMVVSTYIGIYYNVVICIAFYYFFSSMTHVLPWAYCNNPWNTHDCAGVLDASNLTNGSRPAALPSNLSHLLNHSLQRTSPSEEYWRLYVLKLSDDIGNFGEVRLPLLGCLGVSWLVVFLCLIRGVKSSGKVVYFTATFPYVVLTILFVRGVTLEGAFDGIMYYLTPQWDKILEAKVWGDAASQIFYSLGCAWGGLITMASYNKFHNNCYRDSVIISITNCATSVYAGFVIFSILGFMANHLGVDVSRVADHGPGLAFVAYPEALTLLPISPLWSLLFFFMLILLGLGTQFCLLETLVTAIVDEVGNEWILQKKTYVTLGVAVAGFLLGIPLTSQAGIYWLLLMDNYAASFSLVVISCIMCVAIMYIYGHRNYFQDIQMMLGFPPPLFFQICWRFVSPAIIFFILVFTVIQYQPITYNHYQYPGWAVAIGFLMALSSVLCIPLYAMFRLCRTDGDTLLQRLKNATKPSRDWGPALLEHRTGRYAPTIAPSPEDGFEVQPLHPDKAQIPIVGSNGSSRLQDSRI
Kind of test: Glycine uptake inhibition experiment ([3H]glycine uptake). Type of test: cell-based. The note with it: GlyT1. A digest of the protocol: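 T98G glioma cells expressing human GlyT1 were pretreated 10 min with compound in HEPES buffer pH 7.4 (0.2% BSA), then incubated with compound plus 250 nM final [3H]glycine for 15 min at room temperature. Intracellular radioactivity was counted after NaOH lysis; 10 μM ALX5407 defined non-specific uptake. IC50 came from 10^−9–10^−5 M curves.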

Structures are written as SMILES.

A word on the IC50: it is the point on the concentration scale where inhibition reaches its midpoint. Lower therefore signals inhibition by little substance. `O=C(NC(c1cccc(F)n1)C1(O)CCC(F)(F)CC1)c1nccc(C(F)(F)F)c1Cl` (single isomer, unassigned) [Compound 358, 3-chloro-N-[(4,4-difluoro-1-hydroxycyclohexyl)(6-fluoropyridin-2-yl)methyl]-4-(trifluoromethyl)pyridine-2-carboxamide] displayed an IC50 of 150 nM. The value for `O=C(NC(c1ccc(Cl)cc1)C1(O)CCCC1)c1nccc(C(F)(F)F)c1Cl` (centres unmarked) [Compound 46, 3-chloro-N-[(4-chlorophenyl)(1-hydroxycyclopentyl)methyl]-4-(trifluoromethyl)pyridine-2-carboxamide] was 1700 nM; that for `O=C(NC(c1cccc(Cl)n1)C1(O)CCCC1)c1nccc(C(F)(F)F)c1Cl` (centres unmarked) [Compound 383, 3-chloro-N-[(6-chloropyridin-2-yl)(1-hydroxycyclopentyl)methyl]-4-(trifluoromethyl)pyridine-2-carboxamide] was 21 nM; that for `O=C(N[C@@H](c1cccc(-c2ncccn2)c1)C1(O)CCCC1)c1nccc(C(F)(F)F)c1Cl` [Compound 36, 3-chloro-N-{(S)-(1-hydroxycyclopentyl)[3-(pyrimidin-2-yl)phenyl]methyl}-4-(trifluoromethyl)pyridine-2-carboxamide] was 130 nM. For `CN(C)C(=O)c1cccc(C(NC(=O)c2nccc(C(F)(F)F)c2Cl)C2(O)CCCC2)c1` (centres unmarked) [Compound 105, 3-chloro-N-{[3-(dimethylcarbamoyl)phenyl](1-hydroxycyclopentyl)methyl}-4-(trifluoromethyl)pyridine-2-carboxamide] the value was 1600 nM; for `CCn1cc(-c2cccc(C(NC(=O)c3nccc(C(F)(F)F)c3Cl)C3(O)CCCC3)c2)cn1` (single isomer, unassigned) [Compound 13, 3-chloro-N-{[3-(1-ethyl-1H-pyrazol-4-yl)phenyl](1-hydroxycyclopentyl)methyl}-4-(trilfuoromethyl)pyridine-2-carboxamide], 830 nM; for `O=C(NC(c1cccc(-n2cccn2)c1)C1(O)CCCC1)c1nccc(C(F)(F)F)c1Cl` (single isomer, unassigned) [Compound 82, 3-chloro-N-{(1-hydroxycyclopentyl)[3-(1H-pyrazol-1-yl)phenyl]methyl}-4-(trifluoromethyl)pyridine-2-carboxamide], 89 nM. The value for `O=C(NC(c1ccccc1F)C1(O)CCCC1)c1nccc(C(F)(F)F)c1Cl` (centres unmarked) [Compound 41, 3-chloro-N-[(2-fluorophenyl)(1-hydroxycyclopentyl)methyl]-4-(trifluoromethyl)pyridine-2-carboxamide] was 180 nM. `O=C(NC(c1cccc(Cl)n1)C1(O)CCC(F)(F)CC1)c1nccc2ccccc12` (single isomer, unassigned) [Compound 355, N-[(6-chloropyridin-2-yl)(4,4-difluoro-1-hydroxycyclohexyl)methyl]isoquinoline-1-carboxamide]: the midpoint of inhibition, the IC50, lay at 130 nM. The value for `O=C(NC(c1cnccc1Cl)[C@]1(O)CC[C@@H](F)CC1)c1nccc(C(F)(F)F)c1Cl` (single isomer, unassigned) [Compound 308, 3-chloro-N-[(4-chloropyridin-3-yl)(cis-4-fluoro-1-hydroxycyclohexyl)methyl]-4-(trifluoromethyl)pyridine-2-carboxamide] was 380 nM; that for `O=C(NC(c1cccc(F)c1Cl)[C@]1(O)CC[C@@H](F)CC1)c1ccccc1C(F)(F)F` (single isomer, unassigned) [Compound 276, N-[(2-chloro-3-fluorophenyl)(cis-4-fluoro-1-hydroxycyclohexyl)methyl]-2-(trifluoromethyl)benzamide] was 1600 nM. `O=C(NC(c1cccc(Cl)n1)C1(O)CCC(F)(F)CC1)c1cccc(C(F)(F)F)c1Cl` (single isomer, unassigned) [Compound 352, 2-chloro-N-[(6-chloropyridin-2-yl)(4,4-difluoro-1-hydroxycyclohexyl)methyl]-3-(trifluoromethyl)benzamide]: the half-inhibitory concentration (IC50) came out at 150 nM. For `O=C(NC(c1cccc(-c2cncnc2)c1)C1(O)CCCC1)c1cccc(C(F)(F)F)c1Cl` (centres unmarked) [Compound 7, 2-chloro-N-{(1-hydroxycyclopentyl)[3-(pyrimidin-5-yl)phenyl]methyl}-3-(trifluoromethyl)benzamide] the value was 290 nM. The compound `O=C(NC(c1cccc(F)c1Cl)[C@]1(O)CC[C@@H](F)CC1)c1nccc2ccccc12` (single isomer, unassigned) [Compound 255, N-[(2-chloro-3-fluorophenyl)(cis-4-fluoro-1-hydroxycyclohexyl)methyl]isoquinoline-1-carboxamidea] had an IC50 of 120 nM. With `O=C(NC(c1cccc(Cl)c1)C1(O)CCCCC1)c1nccc(C(F)(F)F)c1Cl` (single isomer, unassigned) [Compound 229, 3-chloro-N-[(3-chlorophenyl)(1-hydroxycyclohexyl)methyl]-4-(trifluoromethyl)pyridine-2-carboxamide], the IC50 is 28 nM. `Cc1c(Cl)ccnc1C(=O)NC(c1cccc(F)c1Cl)[C@]1(O)CC[C@@H](F)CC1` (single isomer, unassigned) [Compound 224, 4-chloro-N-[(2-chloro-3-fluorophenyl)(cis-4-fluoro-1-hydroxycyclohexyl)methyl]-3-methylpyridine-2-carboxamide] had an IC50 of 270 nM. In turn, `O=C(NC(c1ccc(F)c(Cl)c1)C1(O)CCCC1)c1nccc(C(F)(F)F)c1Cl` (single isomer, unassigned) [Compound 97, 3-chloro-N-[(3-chloro-4-fluorophenyl)(1-hydroxycyclopentyl)methyl]-4-(trifluoromethyl)pyridine-2-carboxamide] gave an IC50 of 270 nM.

Take `O=C(NC(c1cccc(F)c1Cl)[C@]1(O)CC[C@@H](F)CC1)c1c(Cl)cccc1Cl` (single isomer, unassigned) [Compound 254, 2,6-dichloro-N-[(2-chloro-3-fluorophenyl)(cis-4-fluoro-1-hydroxycyclohexyl)methyl]benzamide]: it took 1000 nM to reach half-maximal inhibition (IC50). For `O=C(NC(c1cccc(-c2cccnc2)c1)C1(O)CCCC1)c1nccc(C(F)(F)F)c1Cl` (single isomer, unassigned) [Compound 25, 3-chloro-N-{(1-hydroxycylcopentyl)[3-(pyridin-3-yl)phenyl]methyl}-4-(trifluoromethyl)pyridine-2-carboxamide] the value was 69 nM; for `CCn1cc(-c2cccc(C(NC(=O)c3cc(Cl)ccc3Cl)C3(O)CCC(F)(F)CC3)c2)cn1` (single isomer, unassigned) [Compound 193, 2,5-dichloro-N-{(4,4-difluroo-1-hydroxycyclohexyl)[3-(1-ethyl-1H-pyrazol-4-yl)phenyl]methyl}benzamide], 830 nM; for `O=C(NC(c1ccccc1F)[C@]1(O)CC[C@@H](F)CC1)c1nccc(C(F)(F)F)c1Cl` (single isomer, unassigned) [Compound 239, 3-chloro-N-[(cis-4-fluoro-1-hydroxycyclohexyl)(2-fluorophenyl)methyl]-4-(trifluoromethyl)pyridine-2-carboxamide], 390 nM. For `CCn1cc(-c2cccc(C(NC(=O)c3ccc(Cl)c(Cl)c3)C3(O)CCC(F)(F)CC3)c2)cn1` (centres unmarked) [Compound 175, 3,4-dichloro-N-{(4,4-difluoro-1-hydroxycyclohexyl)[3-(1-ethyl-1H-pyrazol-4-yl)phenyl]methyl}benzamide] the value was 4000 nM; for `O=C(N[C@@H](c1cccc(Br)c1)C1(O)CCCC1)c1nccc(C(F)(F)F)c1-n1cccn1` [Compound 69, N-[(S)-(3-bromophenyl)(1-hydroxycyclopentyl)methyl]-3-(1H-pyrazol-1-yl)-4-(trifluoromethyl)pyridine-2-carboxamide], 1400 nM; for `O=C(NC(c1cccc(Cl)c1Cl)C1(O)CCC(F)(F)CC1)c1nccc(C(F)(F)F)c1Cl` (single isomer, unassigned) [Compound 136, 3-chloro-N-[(2,3-dichlorophenyl)(4,4-difluoro-1-hydroxycyclohexyl)methyl]-4-(trifluoromethyl)pyridine-2-carboxamide], 3700 nM. For `O=C(NC(c1ccc(F)cc1Cl)C1(O)CCCC1)c1nccc(C(F)(F)F)c1Cl` (single isomer, unassigned) [Compound 99, 3-chloro-N-[(2-chloro-4-fluorophenyl)(1-hydroxycyclopentyl)methyl]-4-(trifluoromethyl)pyridine-2-carboxamide] the value was 5200 nM; for `O=C(NC(c1cccc(-c2cccnc2)c1)C1(O)CCC(F)(F)CC1)c1nccc(C(F)(F)F)c1Cl` (centres unmarked) [Compound 146, 3-chloro-N-{(4,4-difluoro-1-hydroxycyclohexyl)[3-(pyridin-3-yl)phenyl]methyl}-4-(trifluoromethyl)pyridine-2-carboxamide], 140 nM.
